Data: patent US20230285393A1, “METHOD FOR TREATING GRAFT VERSUS HOST DISEASE CAUSED BY HEMATOPOIETIC STEM CELL TRANSPLANTATION” (BEIJING TIDE PHARMACEUTICAL CO., LTD., priority 2020, published 2023)

Tested on: irradiated BALB/c recipient mice infused with C57BL/6 donor bone marrow and spleen cells
Test: Therapeutic effect in mice: allogeneic bone marrow/spleen cell transplantation GVHD model, survival rate
Assay type: in vivo
Details: 30 mpk oral gavage once daily for 23 days, compared with the model group
Description: Male BALB/c recipient mice were irradiated with 8.5 Gy of total body irradiation (TBI) (Gammacell 40, NORPION International Co., Ltd., irradiation source: ^137Cs). A suspension of bone marrow cells (BMC) and spleen cells (SC) from C57BL/6 (H-2b) donor mice was prepared and infused via tail vein to irradiated BALB/c recipient mice at 0.5 mL/per mouse (containing 10×10^6 bone marrow cells and 6.25×10^6 spleen cells from the allogeneic C57BL/6 (H-2b) donor mice). Subsequently, the BALB/c mice were randomly divided into two groups: a model group (G2) and a compound 007 group (G3). An irradiation group (G4) (i.e., receiving ^137Cs irradiation only without donor mouse cell suspension infusion) and a syngeneic bone marrow transplantation group (G1) (a suspension containing 10×10^6 bone marrow cells from syngeneic BALB/c mice was administered to mice in this group via tail vein infusion). G1-G4 groups comprised 9 mice per group. The mice in the model group, the irradiation group and the syngeneic bone marrow transplantation group were administered with vehicle (a 0.2% Tween-80 aqueous solution) by oral gavage, once a day for 23 days. The mice in the compound 007 group were administered with 30 mpk of compound 007 by oral gavage, once daily for 23 days from the first day of model establishment. The survival rate of the animals was recorded daily.

| SMILES | survival rate |
| --- | --- |
| Cn1c(C(=O)N2CC(F)(F)C2)cc2ccc(-c3nccc(Nc4ccc(-c5cn[nH]c5)cc4)n3)cc21 [Compound 007] | significantly improved the survival rate |

Target: ROCK2 (Homo sapiens (Human), UniProt O75116)
Test: ROCK2 Kinase Activity Assay (HTRF KinEASE-STK S2 kit)
Assay type: biochemical
Details: not given
Description: The kinase IC50 was determined by a commercialized CISBIO kinase detection kit, HTRF KinEASE-STK S2 kit (62ST2PEC). ROCK2 (01-119) employed in the reaction was purchased from Carna Biosciences.
Before the assay, the following working solutions as needed were formulated with corresponding reagents according to the instruction of the kinase detection kit: 1×kinase buffer, 5×STK-S2 substrate working solution (1.5 μM) and 5×ATP working solution (1.5 μM), 5×ROCK2 kinase working solution, 4×Streptavidin-XL665 working solution, and 4×STK-Ab-Cryptate 2 detection solution. Then the assay was performed according to the following procedure.
A solution of a compound at a concentration of 10000 nM was prepared with the 1×kinase buffer containing 2.5% DMSO. Gradient dilution of the solution of the compound was performed with the kinase buffer containing DMSO, so as to obtain solutions of a test compound at 9 different concentrations. In addition to wells of test compounds, a positive well (containing all the reagents except the compound) and a negative well (containing all the reagents except the test compound and kinase) were set. Except for the control wells (positive and negative wells), a solution of a test compound (4 μL) was added to each of the reaction wells, and a solution of 2.5% DMSO was added to the control wells. Then the substrate (2 μM, i.e., 2 μL 5×STK-S2 substrate working solution) was added to each of the reaction wells. The 5×ROCK2 kinase working solution (2 μL, containing 1.4 ng ROCK2 kinase) was added to each of the reaction wells except for the negative well, the volume of which was made up with the 1×kinase buffer (2 μL). The 5×ATP working solution (2 μL) was added to each of the reaction wells, and the mixtures were incubated at room temperature for 2 hours. After the kinase reaction was complete, the 4×Streptavidin-XL665 working solution was added to each of the reaction wells, the solutions were mixed, followed by immediate addition of the 4×STK-Ab-Cryptate 2 detection solution (5 μL), and the mixtures were incubated at room temperature for 1 hour. The fluorescence signal was read on ENVISION (Perkinelmer) (excitation wavelength: 320 nm, and emission wavelength: 665 nm and 615 nm). The inhibitory rate in each well was calculated based on the fluorescence intensity value: ER (Emission Ratio)=(fluorescence intensity at 665 nm/fluorescence intensity at 615 nm); inhibitory rate=(ERpositive−ERtest compound)/(ERpositive−ERnegative)*100%. Curves were plotted and fitted to obtain the median inhibitory concentration (IC50) of each teat compound with the PRISM 5.0 software.

ROCK2, sequence (O75116 1-553 limits assumed): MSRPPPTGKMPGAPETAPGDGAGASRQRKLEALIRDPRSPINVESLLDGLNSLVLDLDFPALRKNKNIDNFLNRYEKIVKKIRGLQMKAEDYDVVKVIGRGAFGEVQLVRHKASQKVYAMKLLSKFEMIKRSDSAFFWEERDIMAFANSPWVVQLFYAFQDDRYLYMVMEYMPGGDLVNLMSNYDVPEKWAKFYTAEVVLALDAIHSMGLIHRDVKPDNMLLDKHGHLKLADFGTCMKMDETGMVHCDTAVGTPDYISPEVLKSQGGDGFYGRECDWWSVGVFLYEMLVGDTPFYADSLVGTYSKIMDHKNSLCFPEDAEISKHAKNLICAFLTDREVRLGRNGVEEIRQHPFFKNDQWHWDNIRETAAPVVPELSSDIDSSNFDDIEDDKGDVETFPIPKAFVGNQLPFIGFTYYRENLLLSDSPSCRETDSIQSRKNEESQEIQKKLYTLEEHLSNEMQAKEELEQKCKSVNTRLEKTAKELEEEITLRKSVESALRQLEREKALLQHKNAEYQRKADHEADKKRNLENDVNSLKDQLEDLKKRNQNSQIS

| SMILES | IC50 [nM] |
| --- | --- |
| O=C(N1Cc2ccc(-c3nccc(Nc4ccc(-c5cn[nH]c5)cc4)n3)cc2C1)N1CC(F)(F)C1 [Compound 022] | 75 |
| Cn1c(C(=O)N2CC(F)(F)C2)cc2ccc(-c3nccc(Nc4ccc(-c5cn[nH]c5)cc4)n3)cc21 [Compound 007] | 33 |
| Cn1c(C(=O)N2CC(F)(F)C2)cc2ccc(-c3ncc(F)c(Nc4ccc(-c5cn[nH]c5)cc4)n3)cc21 [Compound 009] | 12 |
| O=C(c1cc2ccc(-c3nccc(Nc4ccc(-c5cn[nH]c5)cc4)n3)cc2[nH]1)N1CC(F)(F)C1 [Compound 006] | 34 |
| O=C(c1cc2ccc(-c3ncc(F)c(Nc4ccc(-c5cn[nH]c5)cc4)n3)cc2[nH]1)N1CC(F)(F)C1 [Compound 008] | 24 |
| O=C(C1CC(F)(F)C1)N1Cc2ccc(-c3nccc(Nc4ccc(-c5cn[nH]c5)cc4)n3)cc2C1 [Compound 020] | 44 |
| Fc1cc(Nc2ccnc(-c3ccc4cc(-c5nccs5)[nH]c4c3)n2)ccc1-c1cn[nH]c1 [Compound 128] | 27 |
| Cn1c(C(=O)N2CC(F)(F)C2)cc2ccc(-c3nccc(Nc4ccc(-c5cn[nH]c5)c(F)c4)n3)cc21 [Compound 011] | 9 |
| O=C(c1cc2ccc(-c3nccc(Nc4ccc(-c5cn[nH]c5)c(F)c4)n3)cc2[nH]1)N1CC(F)(F)C1 [Compound 010] | 61 |
| O=C(C1CC(F)(F)C1)N1Cc2ccc(-c3ncc(F)c(Nc4ccc(-c5cn[nH]c5)cc4)n3)cc2C1 [Compound 021] | 45 |

Tested on: CD4 Naïve T cells from BALB/c mice mixed with C57BL/6 dendritic cells
Test: Allogeneic Mixed Lymphocyte Reaction, inflammatory factors in supernatant
Assay type: cell-based, mouse
Details: 125 nM, 250 nM, 500 nM, 1000 nM; 5 days of culture; compared with control group
Description: Bone marrow cells from C57BL/6 (B6) mouse were isolated and incubated with granulocyte-macrophage colony stimulating factor (GM-CSF, 20 ng/mL, Biolegend, 713704) and interleukin-4 (IL-4, 10 ng/mL, Biolegend, 10715004) for 7 days, followed by addition of 20 ng/mL lipopolysaccharide (LPS) and incubation for 24 hours, the dendritic cells (DC) were collected. The CD4 Naïve T cells from BALB/c mice were extracted and isolated with a commercial kit (Dakewe, 480039). […] CD4 Naïve T cells and 25×10^3 DC cells were mixed and cultured. Compound 007 was added to the mixed cells at four concentrations (125 nM, 250 nM, 500 nM, and 1000 nM), respectively, and a control group (to which an equal amount of the medium was added) was set. After 5 days of culture, the supernatants were collected and kits were employed for the detection of inflammatory factors (IL-6 (Duyou, 1210602), TNF-α (Duyou, 1217202), IFN-γ (Duyou, 1210002), and IL-2 (Duyou, 1210202)).

| SMILES | levels of the inflammatory factors (IL-6, TNF-α, IFN-γ, IL-2) |
| --- | --- |
| Cn1c(C(=O)N2CC(F)(F)C2)cc2ccc(-c3nccc(Nc4ccc(-c5cn[nH]c5)cc4)n3)cc21 [Compound 007] | significantly reduced the levels of the inflammatory factors |
